# Measured values: US8058270B2, “Dihydropteridinones for the treatment of cancer diseases” (Boehringer Ingelheim International GmbH, priority 2004, dated 2011)
# pEC50: −log10 of the molar value.
# Assays:
# Format in all cases: cell-based
# [1] = test system: PC-3; test: Alamar Blue cytotoxicity assay; conditions: Homo sapiens; PC-3 (Prostate), 72 h
# Excerpt: (§1) Alamar Blue™ Cytotoxicity Assays
# (§2) The Alamar Blue™ assay is designed to measure quantitatively the proliferation of cells by incorporating a fluorometric/colorimetric growth indicator based on the detection of metabolic activity.
# (§3) Cell culture: The various human tumor cell lines can be purchased from American Type Culture Collection (ATCC) or the German Collection of Microorganisms and Cell Cultures (DSMZ) and cultivated in 75 to 175 cm^2 tissue culture flasks in the medium indicated by the supplier. The cells are maintained at 37° C. and 5% CO2 in a humidified atmosphere, with an appropriate split ratio. Logarithmically growing cells are used for the assays.
# (§4) Assay conditions: On day one of the experiment 1000-4000 cells (in 100 μl medium) are seeded into each well of a sterile 96-well plate. The number of cells used is dependent on the growth rate and size of the cells. Eight wells on each plate are left free to accommodate for controls (4 wells for medium plus reduced AlamarBlue™, and 4 wells for medium plus oxidized AlamarBlue™). The plates are kept in the incubator overnight. On day two of the experiment serial dilutions of the inhibitor are prepared in medium containing 0.1% DMSO. Typical concentrations used are 10, 3, 1, 0.3, 0.1, 0.03, 0.01, 0.003 and 0.001 μM. 100 μl of the dilution (2× concentrate) is added to each well to yield a final volume of 200 μl per well. As controls plain medium and medium containing 0.1% DMSO are added to the designated wells. All data points are done in quadruplicates. The cells are then incubated for 72 h. After this incubation period 20 μl of AlamarBlue™ is added to each well. As a control, 20 μl of reduced AlamarBlue™ (AlamarBlue™ autoclaved for 30 min) is added to 4 wells without cells, and 20 μl of AlamarBlue™ is added to the remaining 4 wells without cells. After 4-5 h of incubation, the plates are measured in a fluorescence spectrophotometer (excitation 530 nm, emission 590 nm, slits 15, integrate time 0.1).
# (§5) Data analysis: For calculation the mean value from the quadruplicates is taken and the background is subtracted. The 0.1% DMSO value (the mean obtained from 8 wells with cells in medium with 0.1% DMSO but no compound) is taken as 100% control. The data is fitted by iterative calculations using a sigmoidal curve analysis program (Graph Pad Prism version 3.03) with variable Hill slope.
# [2] = test system: Raji; test: Alamar Blue cytotoxicity assay; conditions: Homo sapiens; Raji (Lymphoma), 72 h
# Excerpt: as §1, §2, §3, §4, §5
# [3] = test system: SK-UT-1B; test: Alamar Blue cytotoxicity assay; conditions: Homo sapiens, Skut1B; SK-UT-1B (Uterus), 72 h
# Excerpt: as §1, §2, §3, §4, §5
# [4] = test system: SKOV-3; test: Alamar Blue cytotoxicity assay; conditions: Homo sapiens, SK-OV-3; SKOV-3 (Ovary), 72 h
# Excerpt: as §1, §2, §3, §4, §5
# [5] = test system: Saos-2; test: Alamar Blue cytotoxicity assay; conditions: Homo sapiens; Saos-2 (Bone), 72 h
# Excerpt: as §1, §2, §3, §4, §5
# [6] = test system: THP-1; test: Alamar Blue cytotoxicity assay; conditions: Homo sapiens; THP-1 (Leukemia), 72 h
# Excerpt: as §1, §2, §3, §4, §5
# [7] = test system: A431; test: FACS analysis on PI stained tumor cells, G2/M arrest; conditions: Homo sapiens, A-431; A431 (Vulva), 24 hrs; read-out: FACS Analysis G2M-Arrest EC50
# Excerpt: (§6) FACS Analysis on PI Stained Tumor Cells
# (§7) Propidium iodine (PI) binds stoichiometrically to double stranded DNA and thus is a suitable agent to measure the DNA content of cells in order to determine the percentage of cells residing in various cell cycle stages (G0/1-, S- and G2/M-phases), whereas cells in G0 or G1 phase do have a diploid DNA content (2N) cells in G2 and M-phase (mitosis) do have a doubled (4N) DNA content.
# as §3
# (§8) Assay conditions: On day one of the experiment 1×10^6 tumor cells are plated in 15 ml medium onto each 75 cm^2 tissue culture flask and the cultures are returned to the incubator. On the next day serial twofold dilutions (100× concentrated) of the inhibitor are prepared in tissue culture medium containing 10% DMSO. 150 μl of the 100× concentrated dilution is added to the 15 ml medium in the flask. As control DMSO is given into a separate flask to yield a final concentration of 0.1%. Typical final concentrations used are 1.6, […], 0.4, 0.2, 0.1, 0.05, 0.025, 0.0125, 0.00625 μM in medium containing 0.1% DMSO. After 24 hrs of incubation cells are harvested by 2× wash with PBS and subsequent addition of trypsin/EDTA. Trypsinized cells are washed off the plastic with 1% BSA in PBS. Non-adherent cells in the medium and cells in the PBS wash fluids are pelleted together with the trypsinized cells by centrifuging them for 5 min at 1000 rpm at 4° C. The supernatants are discarded and the pellet is washed twice with PBS. After aspiration of the supernatants pellets are resuspended in the residual PBS (˜100 μl). For cell fixation, 15 ml test tubes (Falcon) with 5 ml of 80% cold ethanol are prepared and the cell suspension is added slowly and kept for at least 2 h or overnight at minus 20° C. Fixed cells are pelleted, washed once with PBS and the cell pellet is then resuspended in 2 ml of 0.25% Triton X-100 in PBS. After 5 min incubation on ice, 5 ml of PBS is added to each sample and the sample is again centrifuged at 1000 rpm for 5 min at 4° C. The supernatant is discarded and the pellet is resuspended in 0.5 ml propidium iodine (PI) staining solution (0.1% RNase and 10 μg/ml propidium iodine in PBS). The cells are incubated for 20 min in the dark and subsequently transferred to 5 ml polystyrene round-bottom tubes.
# (§9) Data analysis: Analysis of the DNA content of the cells can be performed using a FACS analyzer equipped with an argon laser (500 mW, emission 488 nm) and the use of the DNA Cell Quest analysis software (Beckton Dickinson). The logarithmic PI fluorescence is determined in a band-pass filter (Beckton Dickinson 585/43). Quantification of the cell populations residing in the individual cell cycle phases (e.g. G0/G1-, S- and G2/M-phases) is done with the ModFit LT software package from Becton Dickinson. An EC50 value for cells arrested at the G2/M-phase of the cell cycle is calculated by using a sigmoidal curve analysis program (Graph Pad Prism version 3.03).
# [8] = test system: A549; test: as above; conditions: Homo sapiens; A549 (Lung), 24 hrs; read-out: FACS Analysis G2M-Arrest EC50
# Excerpt: as §6, §7, §3, §8, §9
# [9] = test system: BxPC-3; test: as above; conditions: Homo sapiens; BxPC-3 (Pancreas), 24 hrs; read-out: FACS Analysis G2M-Arrest EC50
# Excerpt: as §6, §7, §3, §8, §9
# [10] = test system: FaDu; test: as above; conditions: Homo sapiens; FaDu (Head and Neck), 24 hrs; read-out: FACS Analysis G2M-Arrest EC50
# Excerpt: as §6, §7, §3, §8, §9
# [11] = test system: GRANTA-519; test: as above; conditions: Homo sapiens; GRANTA-519 (Lymphoma), 24 hrs; read-out: FACS Analysis G2M-Arrest EC50
# Excerpt: as §6, §7, §3, §8, §9
# [12] = test system: H4; test: as above; conditions: Homo sapiens; H4 (Brain), 24 hrs; read-out: FACS Analysis G2M-Arrest EC50
# Excerpt: as §6, §7, §3, §8, §9
# [13] = test system: HeLa S3; test: as above; conditions: Homo sapiens; HeLa S3 (Cervix), 24 hrs; read-out: FACS Analysis G2M-Arrest EC50
# Excerpt: as §6, §7, §3, §8, §9
# [14] = test system: HepG2; test: as above; conditions: Homo sapiens; HepG2 (Liver), 24 hrs; read-out: FACS Analysis G2M-Arrest EC50
# Excerpt: as §6, §7, §3, §8, §9
# [15] = test system: MDA-MB-435S; test: as above; conditions: Homo sapiens; MDA-MB-435S (Breast), 24 hrs; read-out: FACS Analysis G2M-Arrest EC50
# Excerpt: as §6, §7, §3, §8, §9
# [16] = test system: NCI-H460; test: as above; conditions: Homo sapiens; NCI-H460 (Lung), 24 hrs; read-out: FACS Analysis G2M-Arrest EC50
# Excerpt: as §6, §7, §3, §8, §9
# [17] = test system: NCI-H520; test: as above; conditions: Homo sapiens; NCI-H520 (Lung), 24 hrs; read-out: FACS Analysis G2M-Arrest EC50
# Excerpt: as §6, §7, §3, §8, §9
# [18] = test system: PC-3; test: as above; conditions: Homo sapiens; PC-3 (Prostate), 24 hrs; read-out: FACS Analysis G2M-Arrest EC50
# Excerpt: as §6, §7, §3, §8, §9
# [19] = test system: Raji; test: as above; conditions: Homo sapiens; Raji (Lymphoma), 24 hrs; read-out: FACS Analysis G2M-Arrest EC50
# Excerpt: as §6, §7, §3, §8, §9
# [20] = test system: SKOV-3; test: as above; conditions: Homo sapiens, SK-OV-3; SKOV-3 (Ovary), 24 hrs; read-out: FACS Analysis G2M-Arrest EC50
# Excerpt: as §6, §7, §3, §8, §9
# [21] = test system: Saos-2; test: as above; conditions: Homo sapiens; Saos-2 (Bone), 24 hrs; read-out: FACS Analysis G2M-Arrest EC50
# Excerpt: as §6, §7, §3, §8, §9
compound,measurement,setting,value
"CC[C@@H]1C(=O)N(C)c2cnc(Nc3ccc(C(=O)NC4CCN(C)CC4)cc3OC)nc2N1C1CCCC1 [4-[[(7R)-8-cyclopentyl-7-ethyl-5,6,7,8-tetrahydro-5-methyl-6-oxo-2-pteridinyl]amino]-3-methoxy-N-(1-methyl-4-piperidinyl)-benzamide]",pEC50,[1],8.15
same,pEC50,[2],7.85
same,pEC50,[3],8.10
same,pEC50,[4],8.40
same,pEC50,[5],8.10
same,pEC50,[6],8.05
same,pEC50,[7],8.22
same,pEC50,[8],7.85
same,pEC50,[9],7.66
same,pEC50,[10],8.15
same,pEC50,[11],7.92
same,pEC50,[12],7.41
same,pEC50,[13],7.80
same,pEC50,[14],7.41
same,pEC50,[15],7.42
same,pEC50,[16],7.49
same,pEC50,[17],7.74
same,pEC50,[18],7.92
same,pEC50,[19],7.70
same,pEC50,[20],7.96
same,pEC50,[21],7.96
